Laboratory results as given in patent publication US9827250B2, “Lens incorporating myopia control optics and muscarinic agents” (Johnson & Johnson Vision Care, Inc., priority 2012, dated 2017).

Key:
progression of myopia = details: 0.5 percent drops instilled one time per day; cited from earlier work
[1] = Drug release from drug loaded lenses into PBS; assay type: physicochemical; details: 34 degrees C
Protocol: Five drug loaded lenses, all together, were placed into 1 mL of phosphate buffered saline (PBS) and placed in a shaking water bath at thirty-four (34) degrees C. Samples were taken at regular intervals and replaced with fresh PBS. Release samples were analyzed spectrophotometrically to determine the concentration. As well, the nature of the peaks was also examined to determine whether there were any changes relative to the control samples (freshly prepared drug in appropriate buffer solutions). Drug loading and release was controlled using different loading concentrations to determine whether the release rate of the drug could be altered by changing simply or easily controlled conditions. Various drug concentrations were examined. In the case of 1 DAM, AT in ethanol and water (1:1) at various concentrations was examined or utilized. For the ATSM release from ATE lenses, the lenses were removed from the loading solution and rinsed to remove loosely physically adsorbed drug. For the 1 DAM lenses, the lenses were dried to remove any residual ethanol and rehydrated prior to the release study.
To establish drug release concentrations, five drug loaded lenses were placed into 1 ml of phosphate buffered saline (PBS) solution and placed in a shaking water bath at 34° C. […] Samples of solution were analyzed spectrophotometrically to determine the concentration of the released drug.

CN1[C@@H]2CC[C@H]1C[C@@H](OC(=O)C(CO)c1ccccc1)C2 (stereo partly drawn) [Atropine, atropine]
efficacy in slowing the progression of myopia (progression of myopia): show efficacy in slowing the progression of myopia

CN1[C@@H]2CC[C@H]1C[C@@H](OC(=O)C(CO)c1ccccc1)C2 (stereo partly drawn) [ATSM, atropine sulphate monohydrate]
release of drug from 1 DAM lenses ([1]; 1 DAM lenses, FIG. 5): release more quickly in greater amounts
release rate from ATE lenses as compared to 1 DAM lenses ([1]; ATE lenses, FIG. 7): somewhat lower release rate
